Source: patent US10155027B2, “Alpha-galactosidase A and 1-deoxygalactonojirimycin co-formulation for the treatment of fabry disease” (Amicus Therapeutics, Inc., priority 2012, dated 2018)
Counter-ions that a name gives are not always drawn. Like-named read-outs stand apart in the source and are kept apart here.

Assay: Phase 1 crossover absolute bioavailability, 150 mg oral capsule vs 150 mg IV infusion (Cohort 4)
Assay type: in vivo, human
Settings: for Vd: iv, 150 mg; for Cmax: read-out: Cmax (geometric mean); for AUC(0-t): read-out: AUC0-t (geometric mean); for AUC(0-inf): read-out: AUC0-∞ (geometric mean); for Tmax: read-out: tmax (median); for half-life: read-out: t½ (arithmetic mean) (converted)
Procedure: Healthy volunteers received migalastat HCl (DGJ HCl) via the intravenous (IV) route of administration to evaluate safety, tolerability, and pharmacokinetics. Another study was performed to determine the absolute bioavailability of migalastat after an oral capsule dose as compared to an IV administered dose of migalastat HCl in healthy volunteers. The absolute bioavailability arm was added to determine the exposure ratio of a 150 mg oral dose relative to a 150 mg dose administered as an IV infusion.
Type of Study: This Phase 1 study was a single-center study consisting of 2 designs. Cohorts 1, 2, and 3 were performed according to a randomized, double-blind, placebo-controlled, single ascending dose (SAD) IV study design to evaluate the safety, tolerability, and PK of IV administered migalastat HCl or IV administered placebo in healthy subjects. Cohort 4 was an open-label, randomized two-way crossover arm designed to assess the absolute bioavailability of orally administered migalastat HCl relative to IV administered migalastat HCl in healthy subjects.
Cohort 4 consisted of 2 sequential treatment periods with a washout period of 7 days between study drug administrations (FIG. 13). Cohort 4 enrolled 10 subjects all of whom received active drug (no placebo was administered). Cohort 4 was randomized such that 5 subjects received the oral formulation and 5 subjects received the IV formulation during Period 1, followed by the alternate formulation during Period 2. • * During Period 1, all Day −1 through Day 3 assessments were performed. ** The washout period was 7 days. *** During Period 2, subjects repeated all Day −1 through Day 3 assessments.
Cohort 4: Period 1: 150 mg migalastat HCl capsule (n=5) or 150 mg migalastat HCl via IV infusion (n=5). Period 2: 150 mg migalastat HCl capsule (n=5) or 150 mg migalastat HCl via IV infusion (n=5)
The migalastat HCl used for infusion was 50 mg/ml and the placebo was 0.9% sodium chloride. The oral migalastat HCl was administered as a 150 mg gelatin […].

In the case of `OC[C@H]1NC[C@H](O)[C@@H](O)[C@H]1O` [migalastat HCl, (2R,3S,4R,5S)-2-(hydroxymethyl) piperdine-3,4,5-triol], the “CLT (arithmetic mean)” value (150 mg IV) is reported as 9.34 L/h, the “geometric mean AUC0-t and AUC0-∞, IV relative to oral” value (150 mg IV vs 150 mg oral) is reported as “approximately 1.3 fold” and the “geometric mean Cmax, IV relative to oral” value (150 mg IV vs 150 mg oral) is reported as “approximately 1.9 fold”. The “maximum arithmetic mean plasma concentrations, IV relative to oral” value (150 mg IV vs 150 mg oral) was “approximately 2 fold”, the “CLT/F (arithmetic mean)” value (150 mg oral) was 12.8 L/h and the “absolute oral bioavailability based on AUC0-t (Percentage Test/Reference)” value (150 mg oral vs 150 mg IV) was 74.3%. The “absolute oral bioavailability based on AUC0-∞ (Percentage Test/Reference)” value (150 mg oral vs 150 mg IV) was 74.6%, the Vd (human, plasma, 150 mg IV, read-out: Vss (arithmetic mean)) was 30.2 L and the Vd (human, plasma, 150 mg IV, read-out: Vz (arithmetic mean)) was 59.4 L. For the same compound, the Cmax (human, plasma, 150 mg IV, 2-hour infusion) was 3380 ng/mL, the AUC(0-t) (human, plasma, 150 mg IV) was 13200 ng·h/mL and the AUC(0-inf) (human, plasma, 150 mg IV) was 13300 ng·h/mL. The Tmax (human, plasma, 150 mg IV) was 1.93 h, the half-life (human, plasma, 150 mg IV) was 4.54 h and the AUC(0-t) (human, plasma, 150 mg oral) was 9780 ng·h/mL. For the same compound, the AUC(0-inf) (human, plasma, 150 mg oral) was 9880 ng·h/mL, the Cmax (human, plasma, 150 mg oral) was 1790 ng/mL and the Vd/F (human, plasma, 150 mg oral, read-out: Vz/F (arithmetic mean)) was 123 L. It also gave a Tmax (human, plasma, 150 mg oral) of 2.75 h and a half-life (human, plasma, 150 mg oral) of 7.28 h.
